Measurements reported in article PMC11555526, “Development of 2-Aminoadenine-Based Proteolysis-Targeting Chimeras (PROTACs) as Novel Potent Degraders of Monopolar Spindle 1 and Aurora Kinases” (ACS Pharmacology & Translational Science, 2024).
Values joined by “and” are separate entries in the source; they are usually repeats but may differ in a detail not shown here. Equal values may be shown once. Read-outs that look alike come from different tables or passages of the source.

Tests used:
MV4-11 cells (naive) = test: alamarBlue cell viability assay; assay type: cell-based, human; settings: 72 h treatment, MV4-11 cells (naive); for EC50: read-out: EC50 (concentration that decreases cell viability by 50%)
Description: Finally, to study the effect of the compounds on cancer cell survival, MV4-11 cells were treated with various concentrations of the chimeras and the cell viability was assessed after 72 h. […] As opposed to the parent inhibitor MPS1-IN-3, its derivatives except 40 were not cytotoxic (Figure S7B, Table 5). […] In addition, most of the SF1-based derivatives affected the viability of MV4-11 cells in nanomolar concentrations (Table 5).
For the alamarBlue cell viability assay, cells were seeded in 96-well plates and treated with indicated concentrations of the compounds or vehicle. A few hours before the experimental end point (72 h, unless otherwise stated), the cells were incubated with the alamarBlue reagent. Finally, fluorescence (excitation: 550 nm and emission: 600 nm) or absorbance (570 nm with reference at 600 nm) was measured on a Tecan Spark Multiplate reader (Tecan).

[1] = target: T1, AURKB (MV4-11^AURKB-HiBiT cells) (Homo sapiens, UniProt Q96GD4); test: HiBiT assay, AURKB degradation; assay type: cell-based; parameters: key to Dmax (maximal degradation) AURKB: compounds with degradation less than 15% reported as “inactive”; settings: 6 h treatment; for DC50: read-out: DC50 (half-maximal degradation concentration) AURKB; for Dmax: read-out: Dmax (maximal degradation) AURKB
T1 construct: expressed in transfected cells; host or cells: MV4-11, lentiviral transduction (pRRL-PGK vector)
Description: (§1) The effects of the synthesized compounds on AURKA, AURKB, and TTK mitotic kinases were then assessed in cellular systems. For this, HiBiT cell lines were generated for all three mitotic kinases. A small 11 amino acid peptide fragment of luciferase (HiBiT) was fused to the coding sequence of the proteins and stably transduced in the MV4-11 cell line (MV4-11^AURKA-HiBiT, MV4-11^AURKB-HiBiT, and MV4-11^HiBiT-TTK).
(§2) The stable cell lines MV4-11^AURKA-HiBiT, MV4-11^AURKB-HiBiT, and MV4-11^HiBiT-TTK cells were generated by lentiviral infection. Lentivirus was produced using the respective HiBiT vector, plasmids psPAX2, and pMD2.G in HEK293 cells. The virus supernatant was filtered and MV4-11 cells were doubly infected with the supernatant. The cells were selected after 48 h of infection until the control cells were dead to get the stable cell line.
(§3) The cells stably expressing HiBiT-tagged protein were seeded into 96-well plates and treated with serial dilutions of compounds for the indicated time points. At the end point, the assay was performed using the Nano-Glo HiBiT Lytic Detection System (Promega) according to the manufacturer’s instruction. Luminescence was measured on a GloMax 96 Microplate Luminometer (Promega) or a Tecan Spark Multiplate reader (Tecan). DC50 was calculated using concentrations showing sigmoidal behavior with the dose–response (four parameters) equation in Prism (GraphPad).

[2] = target: T2, AURKA (MV4-11^AURKA-HiBiT cells) (Homo sapiens, UniProt O14965); test: HiBiT assay, AURKA degradation; assay type: cell-based; parameters: key to Dmax (maximal degradation) AURKA: compounds with degradation less than 15% reported as “inactive”; settings: 6 h treatment, MV4-11^AURKA-HiBiT cells; for DC50: read-out: DC50 (half-maximal degradation concentration) AURKA; for Dmax: read-out: Dmax (maximal degradation) AURKA
T2 construct: expressed in transfected cells; host or cells: MV4-11, lentiviral transduction
T2 sequence (O14965 1-403): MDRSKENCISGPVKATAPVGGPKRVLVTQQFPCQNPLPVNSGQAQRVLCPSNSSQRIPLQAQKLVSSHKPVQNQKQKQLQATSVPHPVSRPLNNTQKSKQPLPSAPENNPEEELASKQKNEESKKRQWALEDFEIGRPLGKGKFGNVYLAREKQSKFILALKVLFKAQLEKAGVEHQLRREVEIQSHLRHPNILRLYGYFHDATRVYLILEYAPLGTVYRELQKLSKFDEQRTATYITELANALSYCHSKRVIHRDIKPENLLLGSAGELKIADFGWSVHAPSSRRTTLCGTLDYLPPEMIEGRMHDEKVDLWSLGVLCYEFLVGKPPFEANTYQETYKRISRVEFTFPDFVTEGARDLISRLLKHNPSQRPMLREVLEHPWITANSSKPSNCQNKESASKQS
Description: as §1, §2, §3

[3] = target: T3, TTK (MV4-11^HiBiT-TTK cells) (Homo sapiens, UniProt P33981); test: HiBiT assay, TTK degradation; assay type: cell-based; parameters: key to Dmax (maximal degradation) TTK: compounds with degradation less than 15% reported as “inactive”; settings: 6 h treatment, MV4-11^HiBiT-TTK cells; for DC50: read-out: DC50 (half-maximal degradation concentration) TTK; for Dmax: read-out: Dmax (maximal degradation) TTK
T3 construct: expressed in transfected cells; host or cells: MV4-11, lentiviral transduction (pRRL-PGK-HiBiT entry vector)
T3 sequence (P33981 1-857): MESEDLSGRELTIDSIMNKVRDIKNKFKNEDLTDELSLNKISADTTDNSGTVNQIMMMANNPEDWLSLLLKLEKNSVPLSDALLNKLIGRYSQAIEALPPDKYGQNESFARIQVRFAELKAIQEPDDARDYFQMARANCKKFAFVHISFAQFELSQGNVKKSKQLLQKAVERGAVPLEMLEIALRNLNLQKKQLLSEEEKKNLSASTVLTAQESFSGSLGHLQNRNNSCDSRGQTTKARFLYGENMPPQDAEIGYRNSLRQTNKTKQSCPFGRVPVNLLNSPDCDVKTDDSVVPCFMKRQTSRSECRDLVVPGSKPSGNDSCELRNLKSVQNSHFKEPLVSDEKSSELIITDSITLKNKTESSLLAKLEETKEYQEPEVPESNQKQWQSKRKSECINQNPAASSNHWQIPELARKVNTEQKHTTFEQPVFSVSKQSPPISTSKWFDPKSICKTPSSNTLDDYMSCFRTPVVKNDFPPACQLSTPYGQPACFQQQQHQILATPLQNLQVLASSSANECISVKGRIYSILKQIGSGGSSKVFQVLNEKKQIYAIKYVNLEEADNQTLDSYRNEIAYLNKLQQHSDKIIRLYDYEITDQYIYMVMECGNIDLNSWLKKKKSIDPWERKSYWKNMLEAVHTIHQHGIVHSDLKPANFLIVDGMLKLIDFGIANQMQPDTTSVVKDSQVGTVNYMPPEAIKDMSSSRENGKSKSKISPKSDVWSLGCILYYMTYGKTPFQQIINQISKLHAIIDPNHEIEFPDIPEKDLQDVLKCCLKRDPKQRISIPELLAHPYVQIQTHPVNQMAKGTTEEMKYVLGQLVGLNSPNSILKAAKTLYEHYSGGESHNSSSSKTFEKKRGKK
Description: as §1, §2, §3

T1 sequence (Q96GD4 1-345 isoform Q96GD4-5): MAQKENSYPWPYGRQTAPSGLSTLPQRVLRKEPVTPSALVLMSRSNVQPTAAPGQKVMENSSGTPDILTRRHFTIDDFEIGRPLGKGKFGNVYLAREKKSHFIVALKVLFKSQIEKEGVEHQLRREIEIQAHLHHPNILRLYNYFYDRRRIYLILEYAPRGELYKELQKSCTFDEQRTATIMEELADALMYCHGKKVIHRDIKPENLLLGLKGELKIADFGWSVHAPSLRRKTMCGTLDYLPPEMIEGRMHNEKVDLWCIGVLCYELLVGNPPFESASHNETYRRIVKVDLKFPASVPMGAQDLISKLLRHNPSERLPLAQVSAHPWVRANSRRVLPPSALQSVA

| Compound | EC50 (MV4-11 cells (naive)) [nM] | Dmax (maximal degradation) AURKB [1] | DC50 [1] [nM] | Dmax (maximal degradation) AURKA [2] | DC50 [2] [nM] | Dmax (maximal degradation) TTK [3] | DC50 [3] [nM] | EC50 (MV4-11 cells (naive); Homo sapiens) [nM] | Dmax [1] [%] | Dmax [2] [%] | Dmax [3] [%] | DC50 (half-maximal degradation concentration) TTK [3] | EC50 (concentration that decreases cell viability by 50%) (MV4-11 cells (naive)) | DC50 (half-maximal degradation concentration) AURKB [1] | DC50 (half-maximal degradation concentration) AURKA [2] |
| --- | --- | --- | --- | --- | --- | --- | --- | --- | --- | --- | --- | --- | --- | --- | --- |
| Cc1ncsc1-c1ccc(CNC(=O)[C@@H]2C[C@@H](O)CN2C(=O)[C@@H](NC(=O)CCCC(=O)N2CCN(c3ccc(Nc4nc(NC5CCCCC5)c5nc[nH]c5n4)cc3)CC2)C(C)(C)C)cc1 [Compound 43] | 584 | 33.80% | 2280 | 55% and 55.60% | 684 | 32.70% | 1960 | – | – | – | – | – | – | – | – |
| Cc1ncsc1-c1ccc(CNC(=O)[C@@H]2C[C@@H](O)CN2C(=O)[C@@H](NC(=O)CCCC(=O)NCC(=O)N2CCN(c3ccc(Nc4nc(Nc5ccccc5S(=O)(=O)C(C)C)c5nc[nH]c5n4)cc3)CC2)C(C)(C)C)cc1 [Compound 46] | 1980 | 29.40% | 466 | 57.90% | 772 | inactive | – | – | – | – | – | – (compounds with degradation less than 25% were not calculated and reported as “–”) | – | – | – |
| Cc1ncsc1-c1ccc(CNC(=O)[C@@H]2C[C@H](O)CN2C(=O)[C@@H](NC(=O)COCCOCC(=O)N2CCN(c3ccc(Nc4nc(Nc5ccccc5S(=O)(=O)C(C)C)c5nc[nH]c5n4)cc3)CC2)C(C)(C)C)cc1 [Compound 51] | 421 | 44.00% | 1160 | inactive | – | 73.95% | 993 | – | – | – | – | – | – | – | – (compounds with degradation less than 25% were not calculated and reported as “–”) |
| Cc1ncsc1-c1ccc(CNC(=O)[C@@H]2C[C@@H](O)CN2C(=O)[C@@H](NC(=O)CCC(=O)NCCNC(=O)CCC(=O)N2CCN(c3ccc(Nc4nc(NC5CCCCC5)c5nc[nH]c5n4)cc3)CC2)C(C)(C)C)cc1 [Compound 55] | 6910 | inactive | – | 28.30% | 9840 | 28.40% | 5650 | – | – | – | – | – | – | – (compounds with degradation less than 25% were not calculated and reported as “–”) | – |
| Cc1ncsc1-c1ccc(CNC(=O)[C@@H]2C[C@@H](O)CN2C(=O)[C@@H](NC(=O)CCC(=O)NCCCNC(=O)CCC(=O)N2CCN(c3ccc(Nc4nc(NC5CCCCC5)c5nc[nH]c5n4)cc3)CC2)C(C)(C)C)cc1 [Compound 56] | 6820 | 29.10% | 2560 | 39.50% | 6500 | 34.20% | 1890 | – | – | – | – | – | – | – | – |
| c1nc2c(NC3CCCCC3)nc(Nc3ccc(N4CCNCC4)cc3)nc2[nH]1 [azareversine, reference compound] | – | – | 79.3 | – | 99.5 | – | 118 | 123 | 44.5 | 52.6 | 47.7 | – | – | – | – |

More lines, main results first:

| EC50 (MV4-11 cells (naive)) [nM] | Dmax (maximal degradation) AURKB [1] | DC50 [1] [nM] | Dmax (maximal degradation) AURKA [2] | DC50 [2] [nM] | Dmax (maximal degradation) TTK [3] | DC50 [3] [nM] | EC50 (MV4-11 cells (naive); Homo sapiens) [nM] | Dmax [1] [%] | Dmax [2] [%] | Dmax [3] [%] | Compound | DC50 (half-maximal degradation concentration) TTK [3] | EC50 (concentration that decreases cell viability by 50%) (MV4-11 cells (naive)) | DC50 (half-maximal degradation concentration) AURKB [1] | DC50 (half-maximal degradation concentration) AURKA [2] |
| --- | --- | --- | --- | --- | --- | --- | --- | --- | --- | --- | --- | --- | --- | --- | --- |
| 836 | 43.70% | 1680 | 41.60% | 282 | 23.00% | – | – | – | – | – | COc1cc(N2CCC(OCC(=O)N3CCN(c4cccc5c4C(=O)N(C4CCC(=O)NC4=O)C5=O)CC3)CC2)ccc1Nc1nc(Nc2ccccc2S(=O)(=O)C(C)C)c2nc[nH]c2n1 (stereo not shown) [Compound 40] | – (compounds with degradation less than 25% were not calculated and reported as “–”) | – | – | – |
| – | inactive | – | inactive | – | inactive | – | – | – | – | – | COc1cc(N2CCC(OCC(=O)NCCNC(=O)CCCC(=O)Nc3cccc4c3C(=O)N(C3CCC(=O)NC3=O)C4=O)CC2)ccc1Nc1nc(Nc2ccccc2S(=O)(=O)C(C)C)c2nc[nH]c2n1 (stereo not shown) [Compound 41] | – (compounds with degradation less than 25% were not calculated and reported as “–”) | — (compounds with decrease of cell viability less than 50% were not calculated and reported as “—”) | – (compounds with degradation less than 25% were not calculated and reported as “–”) | – (compounds with degradation less than 25% were not calculated and reported as “–”) |
| – | – | 993 | – | 274 | – | 1270 | 28 | 70.2 | 61.9 | 88.8 | CC(C)S(=O)(=O)c1ccccc1Nc1nc(Nc2ccc(N3CCNCC3)cc2)nc2[nH]cnc12 [SF1] | – | – | – | – |
| – | – | 4860 | – | 1930 | – | 1750 | 2060 | 40.9 | 40.1 | 29.6 | COc1cc(N2CCNCC2)ccc1Nc1nc(Nc2ccccc2S(=O)(=O)C(C)C)c2nc[nH]c2n1 [SF2] | – | – | – | – |
